Earlier results, collected in patent publication US20070294068A1, “LINE-WALKING RECURSIVE PARTITIONING METHOD FOR EVALUATING MOLECULAR INTERACTIONS AND QUESTIONS RELATING TO TEST OBJECTS” (priority 2006, published 2007).

Tested on: 2C9
Conditions: literature reports

CCc1ccc(CCOc2ccc(CC3SC(=O)NC3=O)cc2)nc1 (centres unmarked) [pioglitazone]
reported inhibition of 2C9: weak inhibitor of the *2 allylic variant not the native enzyme

Nc1ccc(S(=O)(=O)Nc2ncccn2)cc1 [sulfadiazine]
reported inhibition of 2C9: only a weak inhibitor
